Measurements from patent US20250304623A1, “PEPTIDES FOR INTRACELLULAR DELIVERY” (UNIVERSIDADE DE SANTIAGO DE COMPOSTELA, priority 2022, published 2025).
Starred links: 1 amine or outer side, 2 acyl side, 3 side chain; linkers in the order of their positions; H or OH if unused. Residues, ends and D or L forms follow the SMILES beside them. Groups on a side chain read outwards from the residue. *: point of attachment. Glutaryl = O=C(CCCC(=O)[*:2])[*:1]; X1 = CCCC/C=C\CCCCCCCC=NN*

Experiments:
[1] = tested on: all the cell lines except for HepG2
[2] = tested on: mice; test: In vivo FLuc mRNA delivery, i.v. injection, predilution formulation, BLI; details: i.v. tail vein, organs after 24 h
Experimental: FIG. 10A In vivo mRNA transfection. Representative bioluminescence images of animals and extracted organs following i.v. (intravenous) injection of FLuc mRNA/amphiphile complexes (0, 2.5 and 5 μM of 7.3(Leu-His) M) at different times (1 h, 4 h, 7 h and 24 h). 1.3 μg FLuc mRNA were used in all conditions. FIG. 10B Quantification of the organs' bioluminescence
In the case of i.v. administration (tail vein), luciferase expression was evaluated over 24 h, starting at 1 h after the administration of mRNA complexes. After that time, the specimens were sacrificed, and each organ was analysed individually using BLI for quantification of the expression. In this case, preferred conditions involved the injection of 50 μL of complex solution in a suitable buffer, such as PBS, or phosphate buffer enriched with inorganic salts, comprising 2.5 μM 7.3(Leu-His) M and 1.3 μg/mouse FLuc mRNA.

[3] = tested on: HepG2
[4] = tested on: mice; test: In vivo FLuc mRNA delivery, i.v. injection, concentrated formulation, BLI; details: 125 μM
Experimental: Amphiphile stock solutions were prepared in DMSO as described above, but in this case, the amphiphile was contacted directly with the solution of nucleic acid cargo in a suitable buffer, such as PBS, or phosphate buffer enriched with inorganic salts, without any predilution step of the amphiphile's DMSO solution in a suitable aqueous buffer. Delivery efficiency of mRNA by i.v. administration route was determined by bioluminescence imaging (BLI). […] Luciferase expression was evaluated over 24 h, starting at 1 h after the administration of mRNA complexes. After that time, mice were sacrificed, and each organ was analysed individually using bioluminescence imaging (BLI) for quantification of the expression. […] Transfection results with the optimal volume ratios (125 or 250 μM final amphiphile concentration) and expression quantification in organs for candidates 7.2 DO, 7.2 M, 9.2 DO and 9.2 M are presented in FIGS. 12A, 12B, 11A, 11B, 13A, 13B, 20A and 20B respectively.
FIGS. 19A and 19B show in vivo transfection experiments in mice using amphiphiles comprising peptide 13.2 with oleyl aldehyde (13.2 O). These figures show representative bioluminescence images of mice and the extracted organs following i.v. (intravenous) injection of FLuc mRNA/amphiphile 13.2 O complexes (125 and 250 μM of 13.2 O were used, as indicated) at different times (1 h, 4 h, 7 h and 24 h). […]

[5] = tested on: Hela cells; test: EGFP pDNA transfection, flow cytometry, HeLa; format: cell-based; details: HeLa seeded at 60,000, 120,000 and 240,000 cells/mL
Experimental: For cytometry-based assays, the delivery of pDNA encoding for the expression of eGFP gene (GFP) in HeLa and A549 cells was performed. Amphiphilic molecule stock solutions in DMSO were diluted with DMEM and freshly mixed with pDNA stock solutions in DMEM prior to transfection experiments, to afford several complexes at different amphiphile concentration (2.5-10 μM) while maintaining a constant final pDNA concentration of 2 ng/μL. The mixture was shaken for 30 min at room temperature before the addition to the cells. The cell medium was aspirated, and cells were washed twice with PBS. Finally, 50 μL of the complex's solution were added to the cells and incubated for 4 h. After the incubation, the medium was replaced by 100 μL of fresh DMEM supplemented with 10% FBS. 72 hours after transfection the DMEM was removed, and cells were cultured for 5 min with 100 μL of trypsin. Then, 100 μL of PBS (supplemented with 2% FBS and 1% EDTA 0.5M) were added. Finally, the GFP fluorescent measurement was performed in a flow cytometer and the percentage of GFP positive (i.e., transfected cells) were quantified. Amphiphile transfection efficiency was compared to control, non-treated cells and all experiments were done in triplicate.
7.3(Leu-His) peptide with D-amino acids was synthesized. This peptide would be more resistant to the degradation by proteases. The inventors studied the delivery of EGFP pDNA using amphiphiles comprising either enantiomer (either 7.3(Leu-His) peptide with D-amino acids or with L-amino acids) and myristoleyl aldehyde to compare their transfecting activity in HeLa cells. Number of EGFP expressing cells was measured by flow cytometry.
Experiments in cultured cells at different confluence levels were performed to check the effect of this parameter on the activity of amphiphile 7.3(Leu-His) M. As described above, transfection experiments are usually performed on cells seeded the day before at a cell concentration of 60,000 cell/mL (100 μL/well). In the current example, transfection experiments with EGFP pDNA are performed in HeLa cells two and four times more concentrated (120,000 and 240,000 cells/mL, respectively). […] However, for this experiment more volume of complex amphiphile/pDNA was needed as the cell concentration was increased (50, 100 and 200 μL of complexes were used for 60,000, 120,000 and 240,000 cells/mL, respectively).
Several structural modifications were performed on the peptide 7.3(Leu-His). The delivery of EGFP pDNA in HeLa cells using amphiphiles comprising these peptides and myristoleyl aldehyde was tested. The modifications consisted of the modification in the order of the amino acids, the replacement of 1 to 3 K* residues for O* residues and the addition of 1 or 2 R residues on the N-terminus. […]

[6] = tested on: chicken embryo fibroblasts (CEF); test: EGFP pDNA transfection in primary chicken embryo fibroblasts; format: cell-based
Excerpt: FIG. 5 EGFP pDNA transfection efficacy (% GFP-positive cells) with amphiphile comprising 7.3(Leu-His) peptide and myristoleyl aldehyde (7.3(L-H) M) at different concentrations, compared with Lipofectamine 2000 (LF) and TransIT-LT1 Transfection Reagent (Mirus) in CEF (chicken embryo fibroblasts).
The amphiphile obtained by combining the peptide 7.3(Leu-His) with myristoleyl aldehyde (7.3(Leu-His) M) was used to deliver EGFP pDNA in primary chicken embryo fibroblasts (CEF, obtained from 9-10 day-old chicken embryos), which are non-immortal cells difficult to transfect. The transfection efficiency of amphiphile 7.3(Leu-His) M was compared to that of Lipofectamine® 2000 (LF) and TransIT-LT1 Transfection Reagent (Mirus).

CCCC/C=C\CCCCCCCC=NNC(=O)CCCC(=O)NCCCC[C@H](NC(=O)[C@H](CCCCNC(=O)CCCC(=O)NN=CCCCCCCC/C=C\CCCC)NC(=O)[C@H](CCCNC(=N)N)NC(=O)[C@H](Cc1c[nH]cn1)NC(=O)[C@H](CCCCNC(=O)CCCC(=O)NN=CCCCCCCC/C=C\CCCC)NC(=O)[C@H](CCCNC(=N)N)NC(C)=O)C(=O)N[C@@H](Cc1c[nH]cn1)C(N)=O [7.3(Leu-His) M] (Ac-RK([Glutaryl-X1])HRK([Glutaryl-X1])K([Glutaryl-X1])H-NH2)
IC50 [1]: 13 to 24 µM
biodistribution of bioluminescence [2]: a preferred spleen biodistribution of the bioluminiscence was observed, followed by liver expression and, to a lesser extent, in the lungs
IC50 [3]: ~60 µM
effect of DMSO:aqueous volume ratio on bioluminescence ([4]; ratios 1:100, 1:200, 1:400): 1:100 (DMSO:aqueous) ratios showed the highest bioluminescence values, with up to one order of magnitude luminescence enhancement as compared to 1:200 ratio
biodistribution of bioluminescence ([4]; concentrated formulation, 5 μg mRNA/mouse): a preferred spleen biodistribution of the bioluminescence was observed
EGFP pDNA transfection at different cell confluence [5]: performs equally well at all cell concentrations tested
transfection efficiency relative to Lipofectamine 2000 (LF) [6]: two times better
transfection efficiency relative to TransIT-LT1 Transfection Reagent (Mirus) [6]: up to five times better
